Results reported in patent US20010053776A1, “Tricyclic pyridin-2-one analogue as a GABA receptor ligand” (priority 2000, published 2001).

melting point: 300 to 302 °C
Compound: Cc1csc(-c2cc(-c3ccncc3)c3n(c2=O)CCCc2ccncc2-3)n1 [Example 1, 9-(4-Methylthiazol-2-yl)-11-(pyridin-4-yl)-6,7-dihydro-5H-2,7a-diazadibenzo[a,c]cyclohepten-8-one]
